Reference: ChEMBL document CHEMBL3997831, “Synthesis and evaluation of prodrugs of corticotropin-releasing factor-1 (CRF1) receptor antagonist BMS-665053 leading to improved oral bioavailability” (Bioorg Med Chem Lett, 2017)
Values after ≈ are worked out from the molar mass of the structure shown.

Legend:
[1] = Thermodynamic equilibrium aqueous solubility in pH 1 solution at 1 mg/ml after 15 to 24 hrs by UV-HPLC method; type: physicochemical; settings: aqueous pH 1 solution, read-out: Therm_solubility
[2] = Thermodynamic equilibrium aqueous solubility in pH 6.5 solution at 1 mg/ml after 15 to 24 hrs by UV-HPLC method; type: physicochemical; settings: for solubility thermodynamic: aqueous pH 6.5 solution, read-out: Therm_solubility
Rattus norvegicus [3] = test: (§1) AUC (0 to 24 hrs) in Sprague-Dawley rat at 10 mg/kg, po by LC-MS/MS analysis; type: ADME, organism-based; set-up: dose 10 mg/kg, time < 24 hr, route oral; settings: in vivo, 24 h, BLD = below limit of detection
Rattus norvegicus [4] = test: (§2) Cmax in Sprague-Dawley rat at 10 mg/kg, po by LC-MS/MS analysis; type: ADME, organism-based; set-up: dose 10 mg/kg, route oral; settings: in vivo, BLD = below limit of detection
Plasma = test: Prodrug activation in Sprague-Dawley rat assessed as BMS-665053 level in plasma at 10 mg/kg, po by LC-MS/MS analysis; type: organism-based; settings: in vivo
[5] = as §1; type: ADME, organism-based; set-up: dose 10 mg/kg, time < 24 hr, route oral; settings: Sprague-Dawley, in vivo
[6] = as §2; type: ADME, organism-based; set-up: dose 10 mg/kg, route oral; settings: Sprague-Dawley, in vivo
[7] = Oral bioavailability in Sprague-Dawley rat at 10 mg/kg by LC-MS/MS analysis; type: ADME, organism-based; settings: in vivo
[8] = Stability in pH 1 buffer by HPLC method; type: physicochemical
[9] = Prodrug activation in pH 7 buffer assessed as BMS-665053 formation after 10 mins by HPLC method
[10] = target: T1, Alkaline phosphatase, tissue-nonspecific isozyme (Homo sapiens, UniProt P05186); test: (§3) Drug metabolism treated with 3-(Phosphonooxy)propyl (S)-(6-chloro-4-(1-cyclopropylethyl)-3-oxo-3,4-dihydropyrazin-2-yl)(2,6-dichloro-4-(difluoromethoxy)phenyl)carbamate, disodium salt assessed as alkaline phosphatase (unknown origin)-mediated compound conversion after 120 mins by LC-MS analysis; type: ADME; settings: 2 h
T1 sequence (P05186 whole entry): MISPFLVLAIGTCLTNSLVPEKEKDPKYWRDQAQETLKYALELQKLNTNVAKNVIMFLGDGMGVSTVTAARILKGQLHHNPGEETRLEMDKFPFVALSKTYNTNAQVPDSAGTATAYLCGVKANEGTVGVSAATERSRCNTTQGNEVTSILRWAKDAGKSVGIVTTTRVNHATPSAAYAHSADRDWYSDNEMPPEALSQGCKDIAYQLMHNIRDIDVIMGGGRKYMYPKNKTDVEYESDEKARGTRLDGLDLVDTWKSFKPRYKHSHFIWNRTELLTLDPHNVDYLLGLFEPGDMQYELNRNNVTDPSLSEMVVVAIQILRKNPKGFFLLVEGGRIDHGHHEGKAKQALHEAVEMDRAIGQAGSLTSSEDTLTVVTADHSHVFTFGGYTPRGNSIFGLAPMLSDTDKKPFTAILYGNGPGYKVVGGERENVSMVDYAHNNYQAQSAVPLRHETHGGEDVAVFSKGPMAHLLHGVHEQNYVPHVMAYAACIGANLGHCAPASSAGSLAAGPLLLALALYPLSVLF

[11] = target: T1, Alkaline phosphatase, tissue-nonspecific isozyme; test: as §3, with “2,2-Dimethyl-3-(phosphonooxy)propyl” for “3-(Phosphonooxy)propyl”; type: ADME; settings: 2 h
[12] = Stability in pH 1 buffer after 8 hrs by HPLC method; type: physicochemical; settings: pH 1, 8 h
[13] = Stability in pH 7 buffer after 8 hrs by HPLC method; type: physicochemical; settings: pH 7, 8 h

C[C@@H](C1CC1)n1cc(Cl)nc(N(C(=O)OCOC(=O)CN(C)C)c2c(Cl)cc(OC(F)F)cc2Cl)c1=O
solubility thermodynamic [1]: 1.72 mg/mL (≈ 2950 µM) | solubility thermodynamic [2]: 0.53 mg/mL (≈ 908 µM) | AUC (Rattus norvegicus [3]): Bld | Cmax (Rattus norvegicus [4]): Bld | Drug metabolism (Plasma): Metabolite_Notdetected

C[C@@H](C1CC1)n1cc(Cl)nc(N(C(=O)OCOP(=O)(O)O)c2c(Cl)cc(OC(F)F)cc2Cl)c1=O
solubility thermodynamic [1]: 0.338 mg/mL (≈ 584 µM) | Therm_solubility ([2]; buffer): Nd(Unstable) | AUC(0-t) at 24 h [5]: 3.99 µM·h | Cmax [6]: 0.46 µM | bioavailability [7]: 17% | Drug metabolism (Plasma): 23 %ID | Stability [8]: Stable | Drug metabolism [9]: Metabolite detected

C[C@H](N)C(=O)OCOC(=O)N(c1c(Cl)cc(OC(F)F)cc1Cl)c1nc(Cl)cn([C@@H](C)C2CC2)c1=O.Cl
solubility thermodynamic [1]: 0.37 mg/mL | solubility thermodynamic [2]: 0.005 mg/mL | AUC(0-t) at 24 h [5]: 8.25 µM·h | Cmax [6]: 0.73 µM | bioavailability [7]: 36%

C[C@@H](C1CC1)n1cc(Cl)nc(Nc2c(Cl)cc(OC(F)F)cc2Cl)c1=O
solubility thermodynamic [1]: 0.007 mg/mL (≈ 16.5 µM) | solubility thermodynamic [2]: < 0.001 mg/mL | AUC(0-t) at 24 h [5]: 1.26 µM·h

C[C@@H](C1CC1)n1cc(Cl)nc(N(C(=O)OCOC(=O)CCN)c2c(Cl)cc(OC(F)F)cc2Cl)c1=O.Cl
solubility thermodynamic [1]: 1.35 mg/mL | solubility thermodynamic [2]: 0.03 mg/mL | AUC(0-t) at 24 h [5]: 6.32 µM·h | Cmax [6]: 0.49 µM | bioavailability [7]: 27%

C[C@@H](C1CC1)n1cc(Cl)nc(N(C(=O)OCCCO)c2c(Cl)cc(OC(F)F)cc2Cl)c1=O
Drug metabolism [10]: Metabolite_Detected | Drug metabolism [11]: Metabolite_Detected

C[C@@H](C1CC1)n1cc(Cl)nc(N(C(=O)OCCCOP(=O)([O-])[O-])c2c(Cl)cc(OC(F)F)cc2Cl)c1=O.[Na+].[Na+]
solubility thermodynamic [1]: 0.004 mg/mL | solubility thermodynamic [2]: 1.5 mg/mL | AUC(0-t) at 24 h [5]: 4.23 µM·h | Cmax [6]: 0.295 µM | bioavailability [7]: 18% | Stability [12]: Stable | Stability [13]: Stable

C[C@@H](C1CC1)n1cc(Cl)nc(N(COP(=O)([O-])[O-])c2c(Cl)cc(OC(F)F)cc2Cl)c1=O.[Na+].[Na+]
AUC(0-t) at 24 h [5]: 5.99 µM·h | Cmax [6]: 2.15 µM | bioavailability [7]: 25%

C[C@@H](C1CC1)n1cc(Cl)nc(N(C(=O)OCC(C)(C)COP(=O)([O-])[O-])c2c(Cl)cc(OC(F)F)cc2Cl)c1=O.[Na+].[Na+]
solubility thermodynamic [1]: 0.05 mg/mL | solubility thermodynamic [2]: > 1.5 mg/mL | AUC (Rattus norvegicus [3]): Bld | Cmax (Rattus norvegicus [4]): Bld | Drug metabolism (Plasma): Metabolite_Notdetected

CC(C)[C@H](N)C(=O)OCOC(=O)N(c1c(Cl)cc(OC(F)F)cc1Cl)c1nc(Cl)cn([C@@H](C)C2CC2)c1=O.Cl
solubility thermodynamic [1]: 1.82 mg/mL | solubility thermodynamic [2]: 0.01 mg/mL | AUC(0-t) at 24 h [5]: 7.37 µM·h | Cmax [6]: 0.74 µM | bioavailability [7]: 32%
